Publication PMC3968014, “Design and Synthesis of a Library of Lead-Like 2,4-Bisheterocyclic Substituted Thiophenes as Selective Dyrk/Clk Inhibitors” (PLoS ONE, 2014)
Where “and” joins values, the source holds several entries; their conditions need not be identical. Equal entries are not always repeated.

Assays:
Dyrk1A = target: T1, Dyrk1A (Homo sapiens, UniProt Q13627); assay: Dyrk1A kinase assay (32P-ATP, Woodtide); assay type: biochemical; details: for IC50: 100 µM ATP; for inhibition at 5 µM: read-out: percentage of inhibition Dyrk1A; for inhibition at 5 µM / percentage of inhibition Dyrk1A: at 5 µM
T1 construct: encoding the catalytic domain of human Dyrk1A; thrombin cleavage site (N); made in house; host or cells: Escherichia coli BL21(DE3) with pRARE

Dyrk1B = target: T2, Dyrk1B (Homo sapiens, UniProt Q9Y463); assay: Dyrk1B kinase assay (32P-ATP, Woodtide); assay type: biochemical; details: for IC50: 100 µM ATP; for inhibition at 5 µM / inhibition at 1 µM: read-out: percentage of inhibition Dyrk1B; for inhibition at 5 µM / percentage of inhibition Dyrk1B: at 5 µM
T2 construct: purchased Life Technologies PV4649 (LOT # 877059G)
T2 sequence (Q9Y463 whole entry): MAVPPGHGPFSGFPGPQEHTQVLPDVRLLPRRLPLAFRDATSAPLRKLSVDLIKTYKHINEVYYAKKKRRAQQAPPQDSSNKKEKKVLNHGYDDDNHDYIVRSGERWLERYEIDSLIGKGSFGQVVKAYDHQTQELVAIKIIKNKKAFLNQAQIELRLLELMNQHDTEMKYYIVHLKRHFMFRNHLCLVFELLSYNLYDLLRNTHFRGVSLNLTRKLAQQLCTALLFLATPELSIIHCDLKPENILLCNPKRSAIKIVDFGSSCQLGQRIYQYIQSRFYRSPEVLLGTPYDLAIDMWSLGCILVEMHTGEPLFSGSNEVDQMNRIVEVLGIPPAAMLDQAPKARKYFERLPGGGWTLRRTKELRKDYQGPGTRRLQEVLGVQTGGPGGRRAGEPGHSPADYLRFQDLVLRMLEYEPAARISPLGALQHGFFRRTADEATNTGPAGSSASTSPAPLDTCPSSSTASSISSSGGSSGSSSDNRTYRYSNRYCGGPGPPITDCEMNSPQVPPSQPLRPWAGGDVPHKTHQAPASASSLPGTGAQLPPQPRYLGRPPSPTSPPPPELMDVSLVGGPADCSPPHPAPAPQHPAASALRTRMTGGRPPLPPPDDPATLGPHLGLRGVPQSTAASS

Dyrk2 = target: T3, Dyrk2 (Homo sapiens, UniProt Q92630); assay: Dyrk2 kinase assay (32P-ATP, Woodtide); assay type: biochemical; details: for IC50: 100 µM ATP, read-out: IC50 Dyrk2; for inhibition at 5 µM / inhibition at 1 µM: read-out: percentage of inhibition Dyrk2
T3 construct: made in house; host or cells: Escherichia coli BL21(DE3) with pRARE; plasmid pGEX-2TK-Dyrk2 (gift from W. Becker, Aachen)
T3 sequence (Q92630 1-601): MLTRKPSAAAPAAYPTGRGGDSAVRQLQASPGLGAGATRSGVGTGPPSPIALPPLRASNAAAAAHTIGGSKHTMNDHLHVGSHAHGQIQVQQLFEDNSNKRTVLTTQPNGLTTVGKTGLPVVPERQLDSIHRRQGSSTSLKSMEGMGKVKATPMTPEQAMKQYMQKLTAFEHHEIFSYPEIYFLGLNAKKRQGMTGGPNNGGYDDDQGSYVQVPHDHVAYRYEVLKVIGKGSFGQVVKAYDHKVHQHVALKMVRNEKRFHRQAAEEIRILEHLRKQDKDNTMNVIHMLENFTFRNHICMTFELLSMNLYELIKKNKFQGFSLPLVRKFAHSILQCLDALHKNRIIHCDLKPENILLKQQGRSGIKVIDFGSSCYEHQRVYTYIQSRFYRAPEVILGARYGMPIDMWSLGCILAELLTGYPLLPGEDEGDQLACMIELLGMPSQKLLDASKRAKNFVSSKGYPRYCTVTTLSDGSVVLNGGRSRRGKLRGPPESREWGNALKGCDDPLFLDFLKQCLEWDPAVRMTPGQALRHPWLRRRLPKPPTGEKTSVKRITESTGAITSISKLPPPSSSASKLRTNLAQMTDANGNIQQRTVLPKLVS

CK2α = target: T4, CK2α (Homo sapiens, UniProt P68400); assay: CK2α kinase assay (counter screen); assay type: biochemical; details: read-out: percentage of inhibition CK2α
T4 construct: purchased Life Technologies (Invitrogen SelectScreen); Dyrk1A, Dyrk2 and CK2α in-house or gifts
T4 sequence (P68400 whole entry): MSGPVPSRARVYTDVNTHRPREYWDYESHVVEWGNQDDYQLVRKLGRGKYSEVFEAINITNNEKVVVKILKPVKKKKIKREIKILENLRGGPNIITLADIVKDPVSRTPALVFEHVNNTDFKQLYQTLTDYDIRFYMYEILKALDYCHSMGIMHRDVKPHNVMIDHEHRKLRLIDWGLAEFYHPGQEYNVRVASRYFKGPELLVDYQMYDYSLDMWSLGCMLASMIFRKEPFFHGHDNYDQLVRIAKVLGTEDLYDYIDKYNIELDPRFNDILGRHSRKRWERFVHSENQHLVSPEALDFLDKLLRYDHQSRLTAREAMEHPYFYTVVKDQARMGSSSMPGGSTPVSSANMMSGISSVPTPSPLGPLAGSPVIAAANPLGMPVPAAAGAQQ
Description: Dyrk1A, Dyrk1B, Dyrk2, CK2α and Clk1 kinase reactions were performed in a reaction buffer containing 50 mM Tris/HCl, pH 7.4, 0.1 mM EGTA, 0.5 mM DTT, 10 mM MgCl2, 100 µM ATP and 0.33 µM [γ-^32ATP] as well as the appropriate substrate peptides, which were 100 µM Woodtide for the Dyrk isoforms ([…]-NH2), 60 µM CK2 substrate peptide ([…]-NH2, from Millipore) for CK2α or RS repeat peptide ([…]) for Clk1. The CK2α protein was a kind gift of M. Montenarh (Homburg). The kinase reactions were performed at 30°C for 15 min and terminated by spotting 5 µL of the reaction mixture onto a P81 phosphocellulose membrane (Whatman). The membrane was washed four times with 0.3% phosphoric acid and one time with acetone and dried. The dry membrane was exposed in a cassette to a Phosphor Screen Imaging Plate (FujiFilm) and the signals detected by scanning of the imaging plate in a Fuji FLA-3000 PhosphoImager. The spots were quantified using AIDA software (Raytest, Version 3.52) to determine the activities of the kinases in the assay reactions. […] IC50 values were calculated by fitting the data with Origin Pro 8.6 (OriginLabs). The calculated IC50 values are representative of at least two independent determinations.

| IC50 (Dyrk1A) | IC50 (Dyrk1B) | IC50 (Dyrk2) | inhibition at 5 µM (CK2α) | inhibition at 5 µM (Dyrk2; at 5 µM) | inhibition at 5 µM (Dyrk1A) | Compound | also measured |
| --- | --- | --- | --- | --- | --- | --- | --- |
| 700 nM | 300 nM | 200 nM | 16% | – | – | COc1cncc(-c2csc(-c3cccnc3)c2)c1 [Compound 8, 3-methoxy-5-[5-(pyridin-3-yl)thiophen-3-yl]pyridine] | melting point: 132 to 133 °C |
| 2200 nM | 600 nM | 400 nM | 0% | – | – | c1cncc(-c2cc(-c3cnc4ccccn34)cs2)c1 [Compound 32] | – |
| – | 34000 nM | – | 0% | – | – | COc1ccc(-c2csc(-c3cccnc3)c2)cn1 [Compound 9] | percentage of inhibition Dyrk2 (Dyrk2; at 5 µM): No inhibition |
| 2600 nM | – | – | 3% | 44% | – | N#Cc1cncc(-c2csc(-c3cccnc3)c2)c1 [Compound 13] | inhibition at 5 µM (Dyrk1B): 30% |
| – | – | 630 nM and 600 nM | 7% | – | 37% | Cn1cnc2cc(-c3csc(-c4cccnc4)c3)cnc21 [Compound 24] | inhibition at 1 µM (Dyrk1B): 13% |
| – | – | – | – | – | 4% | [O-][n+]1cccc(-c2csc(-c3cccnc3)c2)c1 [Compound 25] | – |
| – | – | – | – | 5% | 7% | CSc1ncc(-c2csc(-c3cnco3)c2)cn1 [Compound 37] | inhibition at 5 µM (Dyrk1B): 21% |
| 1100 nM | 900 nM | 1800 nM | 27% | – | – | c1cncc(-c2cc(-c3cnc4ccccc4c3)cs2)c1 [Compound 20] | – |
| 1800 nM | 3500 nM | 1800 nM | 0% | – | – | c1cncc(-c2cc(-c3cncnc3)cs2)c1 [Compound 22] | – |
| – | – | – | – | 12% | 0% | Clc1cncc(-c2csc(-c3cnco3)c2)c1 [Compound 34] | inhibition at 5 µM (Dyrk1B): 18% |
| – | – | – | – | 27% | – | Cn1ccc(-c2csc(-c3cccnc3)c2)cc1=O [Compound 26] | percentage of inhibition Dyrk1A (Dyrk1A): No inhibition; percentage of inhibition Dyrk1B (Dyrk1B): No inhibition |
| 4700 nM | 3400 nM | 1600 nM | 0% | – | – | Cc1ccc(-c2csc(-c3cccnc3)c2)cn1 [Compound 7] | – |
| 1200 nM | 1900 nM | 700 nM | 14% | – | – | Clc1cncc(-c2csc(-c3cccnc3)c2)c1 [Compound 16] | – |
| – | – | – | – | 37.5% | 23% | Cc1cc(-c2csc(-c3cccnc3)c2)ccn1 [Compound 12] | percentage of inhibition Dyrk1B (Dyrk1B): No inhibition |
| 900 nM | 1500 nM | 300 nM | 4.2% | – | – | NC(=O)c1cncc(-c2csc(-c3cccnc3)c2)c1 [Compound 19, 5-[5-(pyridin-3-yl)thiophen-3-yl]pyridine-3-carboxamide] | melting point: 217 to 218 °C |
| 5000 nM | 2200 nM | 3800 nM | -15% | – | – | Cc1cncc(-c2csc(-c3cncnc3)c2)c1 [Compound 43] | – |
| 900 nM | 1400 nM | 400 nM | 0% | – | – | Fc1cncc(-c2csc(-c3cccnc3)c2)c1 [Compound 15, 3-fluoro-5-[5-(pyridin-3-yl)thiophen-3-yl]pyridine] | melting point: 186 to 187 °C |
| – | – | – | 0% | – | 45% | CCOc1cncc(-c2csc(-c3cccnc3)c2)c1 [Compound 10] | inhibition at 1 µM (Dyrk1B): 6%; inhibition at 1 µM (Dyrk2): 22% |
| – | 9100 nM | 5100 nM | – | – | 44% | Cn1cncc1-c1csc(-c2cccnc2)c1 [Compound 31] | – |
| 3100 nM | 5400 nM | 3000 nM | 0% | – | – | FC(F)(F)c1cncc(-c2csc(-c3cccnc3)c2)c1 [Compound 14] | – |

| IC50 (Dyrk1A) | IC50 (Dyrk1B) | IC50 (Dyrk2) | inhibition at 5 µM (CK2α) | inhibition at 5 µM (Dyrk2; at 5 µM) | inhibition at 5 µM (Dyrk1A) | Compound | also measured |
| --- | --- | --- | --- | --- | --- | --- | --- |
| – | – | – | – | 27% | 2% | c1ncc(-c2csc(-c3cncnc3)c2)cn1 [Compound 44] | inhibition at 5 µM (Dyrk1B): 27% |
| 1500 nM | 2200 nM | 1500 nM | -20% | – | – | c1ncc(-c2cc(-c3cn[nH]c3)cs2)o1 [Compound 38] | – |
| 4400 nM | 8000 nM | – | 0% | – | – | Cc1ccncc1-c1csc(-c2cccnc2)c1 [Compound 6] | inhibition at 1 µM (Dyrk2): 10% |
| – | – | – | – | 30% | 18% | c1cc2cc(-c3csc(-c4cnco4)c3)ccc2[nH]1 [Compound 40] | inhibition at 5 µM (Dyrk1B): 9% |
| – | – | – | – | 0% | 1% | Clc1cncc(-c2csc(-c3cncnc3)c2)c1 [Compound 42] | inhibition at 5 µM (Dyrk1B): 5% |
| 1300 nM | 1400 nM | 300 nM | 0% | – | – | Nc1cc(-c2csc(-c3cccnc3)c2)cnc1Cl [Compound 23] | – |
| 900 nM | 1100 nM | 900 nM | 0% | – | – | CC(=O)c1cncc(-c2csc(-c3cccnc3)c2)c1 [Compound 17, 1-{5-[5-(pyridin-3-yl)thiophen-3-yl]pyridin-3-yl}ethan-1-one] | melting point: 166 to 167 °C |
| – | – | – | – | 16% | 25% | c1ncc(-c2csc(-c3cnco3)c2)cn1 [Compound 36] | inhibition at 5 µM (Dyrk1B): 40% |
| – | – | – | – | 15% | 9% | c1ccc2c(-c3csc(-c4cncnc4)c3)cncc2c1 [Compound 46] | inhibition at 5 µM (Dyrk1B): 33% |
| – | – | 6700 nM | – | – | 31% | c1cncc(-c2cc(-c3cscn3)cs2)c1 [Compound 28] | – |
| – | – | – | – | -24% | 8% | CSc1ncc(-c2csc(-c3cncnc3)c2)cn1 [Compound 45] | inhibition at 5 µM (Dyrk1B): 20% |
| 900 nM | 1200 nM | 600 nM | 5% | – | – | Cc1cncc(-c2csc(-c3cccnc3)c2)c1 [Compound 5, 3-methyl-5-[5-(pyridin-3-yl)thiophen-3-yl]pyridine] | melting point: 106 to 107 °C |
| 3500 nM | 3200 nM | 2900 nM | 6% | – | – | c1cncc(-c2cc(-c3cncc4ccccc34)cs2)c1 [Compound 21] | – |
| 1200 nM | 1100 nM | 1500 nM | -15% | – | – | Cc1cncc(-c2csc(-c3cnco3)c2)c1 [Compound 35] | – |
| 1500 nM | 2400 nM | 1200 nM | 3% | – | – | c1cncc(-c2csc(-c3cncc4ccccc34)c2)c1 [Compound 47] | – |
| – | – | – | – | 31% | – | c1cncc(-c2cc(-c3ccc4c(c3)CCO4)cs2)c1 [Compound 27] | percentage of inhibition Dyrk1A (Dyrk1A): No inhibition; percentage of inhibition Dyrk1B (Dyrk1B): No inhibition |
| 1200 nM | 1700 nM | 1500 nM | 14% | – | – | COC(=O)c1cncc(-c2csc(-c3cccnc3)c2)c1 [Compound 18] | – |
| 2000 nM | – | – | 15% | – | – | Cc1cc(-c2csc(-c3cccc(O)c3)c2)ccc1O [Compound 1] | – |
| – | – | – | – | – | 10% | Cc1cc(O)cc(-c2csc(-c3cccc(O)c3)c2)c1 [Compound 2] | – |
| – | 8070 nM | – | – | 19% | 20% | c1ccc2c(-c3csc(-c4cnco4)c3)cncc2c1 [Compound 39] | – |
